Data published in the supplement of paper PMC10307832.

What was measured:
Test in all cases: relative viability (nuclei count vs DMSO), 5 days (fraction); higher = more cells survive
TPCA-1 + Pemetrexed = compound: C1=CC(=CC=C1C2=CC(=C(S2)NC(=O)N)C(=O)N)F [TPCA-1] + Nc1nc2[nH]cc(CCc3ccc(C(=O)N[C@@H](CCC(=O)O)C(=O)O)cc3)c2c(=O)[nH]1 [Pemetrexed] (partner 0.2 µM)
How it was run: (§1)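 Lung cancer cell lines in 1536-well plates got either a single drug or a fixed anchor-drug dose together with five library-drug doses (not always all listed) in √10 steps, by pin tool, on the day after seeding. Nuclei were counted after 5 days, and relative viability is the treated-to-vehicle ratio of nuclei counts. Values are medians of duplicate plates.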

[1] = compound: C[C@]12O[C@H](C[C@]1(O)CO)n1c3ccccc3c3c4c(c5c6ccccc6n2c5c31)CNC4=O [Lestaurtinib] + Nc1ncn([C@H]2C[C@H](O)[C@@H](CO)O2)c(=O)n1 [Decitabine] (partner 2 µM)
How it was run: as §1

[2] = compound: C1/C(=C\C2=CC=CS2)/C(=O)/C(=C/C3=CC=CS3)/C1 + COc1cc2c(Oc3ccc(NC(=O)C4(C(=O)Nc5ccc(F)cc5)CC4)cc3F)ccnc2cc1OCCCN1CCOCC1 [Foretinib] (partner 0.25 µM)
How it was run: as §1

[3] = compound: C[C@]12O[C@H](C[C@]1(O)CO)n1c3ccccc3c3c4c(c5c6ccccc6n2c5c31)CNC4=O [Lestaurtinib] + Cc1cc(Nc2cc(N3CCN(C)CC3)nc(Sc3ccc(NC(=O)C4CC4)cc3)n2)n[nH]1 [Tozasertib] (partner 0.1 µM)
How it was run: as §1

Cell Line	relative viability (TPCA-1 + Pemetrexed; first compound 0.04 µM)	relative viability (TPCA-1 + Pemetrexed; first compound 0.1265 µM)	relative viability (TPCA-1 + Pemetrexed; first compound 0.4 µM)	relative viability (TPCA-1 + Pemetrexed; first compound 1.265 µM)	relative viability (TPCA-1 + Pemetrexed; first compound 4 µM)	relative viability ([1]; first compound 0.005 µM)	relative viability ([1]; first compound 0.01581 µM)	relative viability ([1]; first compound 0.05 µM)	relative viability ([1]; first compound 0.1581 µM)	relative viability ([1]; first compound 0.5 µM)	relative viability ([2]; first compound 0.2 µM)	relative viability ([2]; first compound 0.6325 µM)	relative viability ([2]; first compound 2 µM)	relative viability ([2]; first compound 6.325 µM)	relative viability ([2]; first compound 20 µM)	relative viability ([3]; first compound 0.005 µM)	relative viability ([3]; first compound 0.01581 µM)	relative viability ([3]; first compound 0.05 µM)	relative viability ([3]; first compound 0.1581 µM)	relative viability ([3]; first compound 0.5 µM)
NCI-H1944	0.631	0.466	0.705	0.589	0.487	0.419	0.481	0.442	0.463	0.317	0.918	0.828	0.89	0.844	0.859	0.262	0.276	0.234	0.236	0.201
NCI-H2023	0.2	0.282	0.254	0.222	0.202	0.241	0.254	0.231	0.183	0.105		0.949	0.998	0.82	1.05	0.386	0.554	0.357	0.269	0.0989
NCI-H1755	0.448	0.437	0.459	0.379	0.444	0.723	0.791	0.806	0.638	0.559	0.931	0.959	1.01	0.817	0.928	0.607	0.693	0.589	0.461	0.372
NCI-H23	0.614	0.668	0.72	0.61	0.235	0.349	0.315	0.339	0.295	0.228	0.973	1.13	1.07	0.851	0.991	0.492	0.343	0.3	0.439	0.237
201T	0.363	0.298	0.337	0.282	0.304	0.858	0.93	0.98	0.934	0.926	1	1.09	1.25	0.752	1.02	1	0.984	1.05	0.955	0.354
NCI-H1734	0.41	0.413	0.41	0.48	0.362	0.56	0.499	0.442	0.444	0.253	0.805	0.939	0.92	0.797	0.818	0.289	0.153	0.247	0.214	0.178
NCI-H520	0.779	0.727	0.737	0.578	0.608	0.62	0.59	0.502	0.327	0.247	0.842	0.93	0.804	0.711	0.632	0.458	0.468	0.428	0.388	0.254
NCI-H1650	0.382	0.369	0.424	0.358	0.365	0.441	0.623	0.457	0.506	0.54	1.15	1.16	1.41	1.12	1.18	0.469	0.526	0.343	0.371	0.313
NCI-H1355	1.06	1	1.01	0.945	0.878	0.389	0.349	0.329	0.311	0.344	1.01	0.877	0.995	0.913	0.954	0.51	0.52	0.377	0.441	0.287
NCI-H1915	0.532	0.507	0.509	0.46	0.371	0.275	0.266	0.284	0.263	0.217	1.09	1.1	1.01	1.07	1.1	0.498	0.532	0.363	0.49	0.214
BEN	0.701	0.661	0.739	0.99	0.513	0.787	0.854	0.688	0.459	0.349	0.7	0.646	0.78	0.745	0.655	0.561	0.53	0.428	0.377	0.217
NCI-H3122	0.203	0.23	0.222	0.191	0.19	0.47	0.582	0.465	0.453	0.424	1.01	0.934	1	0.81	0.846	0.56	0.553	0.421	0.366	0.176
SK-MES-1	0.925	0.808	0.91	0.769	0.631	0.36	0.441	0.321	0.282	0.142	0.949	1	0.925	0.701	0.848	0.966	0.834	0.341	0.455	0.197
HOP-62	0.269	0.346	0.299	0.271	0.216	0.171	0.231	0.273	0.323	0.211	1.08	1.07	1.07	0.922	1.09	0.35	0.43	0.396	0.356	0.234
HCC-366		0.17	0.155	0.116	0.145	0.408	0.343	0.378	0.365	0.222	0.919	0.915	0.99	0.849	0.904	0.174	0.126	0.142	0.0841	0.072
NCI-H2347	0.385	0.419	0.417	0.385	0.424	0.587	0.651	0.57	0.512	0.496	0.703	1.1	1.08	0.729	1.03	1.15	0.64	0.493	0.412	0.537

Cell Line	relative viability (TPCA-1 + Pemetrexed; first compound 0.04 µM)	relative viability (TPCA-1 + Pemetrexed; first compound 0.1265 µM)	relative viability (TPCA-1 + Pemetrexed; first compound 0.4 µM)	relative viability (TPCA-1 + Pemetrexed; first compound 1.265 µM)	relative viability (TPCA-1 + Pemetrexed; first compound 4 µM)	relative viability ([1]; first compound 0.005 µM)	relative viability ([1]; first compound 0.01581 µM)	relative viability ([1]; first compound 0.05 µM)	relative viability ([1]; first compound 0.1581 µM)	relative viability ([1]; first compound 0.5 µM)	relative viability ([2]; first compound 0.2 µM)	relative viability ([2]; first compound 0.6325 µM)	relative viability ([2]; first compound 2 µM)	relative viability ([2]; first compound 6.325 µM)	relative viability ([2]; first compound 20 µM)	relative viability ([3]; first compound 0.005 µM)	relative viability ([3]; first compound 0.01581 µM)	relative viability ([3]; first compound 0.05 µM)	relative viability ([3]; first compound 0.1581 µM)	relative viability ([3]; first compound 0.5 µM)
LXF-289	0.883	0.869	0.903	0.877	0.535	0.312	0.428	0.374	0.364	0.315	0.982	0.959	0.973	0.994	0.98	0.229	0.206	0.194	0.203	0.141
NCI-H1793	0.97	0.709	0.921	0.963	0.249	0.506	0.481	0.459	0.542	0.421	0.754	0.629	0.783	0.579	0.625	0.335	0.279	0.347	0.265	0.255
LU99A	0.17	0.162	0.196	0.167	0.198	0.711	0.84	0.572	0.366	0.276	0.794	0.853	1.01	0.753	0.89	0.287	0.297	0.271	0.218	0.226
PC-14	0.136	0.128	0.133	0.134	0.138	0.244	0.223	0.237	0.207	0.0672	0.942	0.932	0.937	0.847	0.885	0.639	0.668	0.674	0.546	0.163
NCI-H2085		0.864	0.918	0.872	0.634	0.55	0.583	0.664	0.597	0.551	1.09	1.05	0.984	0.927	0.883	0.828	0.83	0.75	0.882	0.56
NCI-H2170	0.273	0.34	0.288	0.28	0.265	0.461	0.489	0.441	0.43	0.383	1.02	0.99	1.02	0.887	1.03	0.72	0.848	0.696	0.45	0.219
HCC-78	0.919	0.911	0.932	0.885	0.9	0.748	0.884	0.712	0.662	0.441	0.581	0.602	0.56	0.444	0.481	0.434	0.363	0.436	0.353	0.183
NCI-H1395	0.857	0.859	1.06	0.847	0.629	0.778	0.765	0.774	0.684	0.453	0.992	0.945	1.18	0.861	1.01	0.773	0.791	0.64	0.721	0.46
NCI-H2126	0.636	0.607	0.679	0.508	0.524	0.582	0.593	0.623	0.536	0.553	1.38	0.985	1.3	1.08	1.08	0.919	0.963	0.802	0.699	0.48
H3255	0.577	0.487	0.58	0.484	0.493	0.792	0.565	0.562	0.512	0.366	0.847	1.09	1.1	0.819	0.83	0.611	0.884	0.633	0.587	0.5
HCC-15	0.222	0.227	0.224	0.238	0.22	0.747	0.843	0.683	0.385	0.191	1.09	0.994	1.03	0.917	1.06	0.598	0.599	0.232	0.235	0.107
NCI-H661	0.931	0.906	0.931	0.851	0.97	0.552	0.59	0.52	0.502	0.33	1.05	1.02	1.02	0.993	1	0.359	0.361	0.395	0.423	0.417
NCI-H2009	1.07	0.979	1	1.11	0.99	0.373	0.392	0.399	0.36	0.347	1.31	1.23	1.2	1.2	1.21	0.783	0.832	0.625	0.454	0.359
ChaGo-K-1	0.273	0.23	0.274	0.261	0.211	0.553	0.574	0.51	0.463	0.461	0.912	1.01	0.857	0.797	0.41	0.221	0.254	0.243	0.231	0.215
COR-L23	0.206	0.207	0.184	0.193	0.196	0.487	0.511	0.384	0.354	0.153	1.09	1.09	0.874	0.859	0.958	0.197	0.229	0.184	0.174	0.184
EMC-BAC-2	0.422	0.472	0.466	0.436	0.484	0.955	1.04	1.01	0.659	0.418	1.01	1.03	0.973	0.656	1.09	0.279	0.206	0.283	0.22	0.183
